Results as given in patent publication US20190350940A1, “PLATINUM COMPOUNDS, COMPOSITIONS, AND USES THEREOF” (priority 2015, published 2019).
“Also recorded” adds a separate entry of the source.

Tests used:
male and female rats = test: Repeat-dose intravenous toxicity study in rats with a 3-week recovery period (Compound 8-TX-007); format: in vivo
Description: Groups of 30 animals (15/sex) each received vehicle control or Compound 8 9, 14, 19, or 6 mg/kg. Groups of 20 animals (10/sex) received Compound 8 9, 14, 19, or 6 mg/kg and 6 animals (3/sex) received vehicle control in the TK portion of the study.
Assessment of toxicity was based on mortality, clinical observations, functional observational battery evaluations, body weight, and food consumption and efficiency; ophthalmoscopic examinations; and clinical and anatomical pathology. RBC pellet analysis was conducted for total platinum content.
Toxicity and TK assessments were conducted for the test article and positive control.

human plasma = test: In vitro plasma protein binding, human plasma (Compound 8-DMPK-008); format: in vitro ADME; conditions: incubation 10 minutes at 37° C.
CYP2D6 = CYP2D6 (Homo sapiens, UniProt P10635); test: CYP inhibition, 2D6; format: in vitro ADME
CYP2D6, sequence (P10635 whole entry): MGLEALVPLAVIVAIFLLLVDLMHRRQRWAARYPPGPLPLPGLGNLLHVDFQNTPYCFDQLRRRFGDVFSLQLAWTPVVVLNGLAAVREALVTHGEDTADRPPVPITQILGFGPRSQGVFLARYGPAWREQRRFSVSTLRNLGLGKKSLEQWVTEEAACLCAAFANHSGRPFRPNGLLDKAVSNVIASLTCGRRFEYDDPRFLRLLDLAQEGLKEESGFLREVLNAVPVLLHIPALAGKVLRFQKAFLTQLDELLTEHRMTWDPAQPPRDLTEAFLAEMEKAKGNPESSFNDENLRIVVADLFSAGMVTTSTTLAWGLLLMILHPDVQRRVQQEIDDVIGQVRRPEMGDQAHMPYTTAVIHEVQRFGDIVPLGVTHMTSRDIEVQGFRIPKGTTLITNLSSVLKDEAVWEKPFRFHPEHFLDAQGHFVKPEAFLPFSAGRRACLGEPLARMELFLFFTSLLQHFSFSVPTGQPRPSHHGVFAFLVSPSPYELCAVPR

CC(=O)[O][Pt]([NH2])([NH2])([Cl])([Cl])[O]C(=O)NCCCCCN1C(=O)C=CC1=O [Compound 8]
Body weights (decreased relative to vehicle) (male and female rats; Compound 8 9 mg/kg): transiently through Day 7 | Local tolerance: microscopic evaluation of the last injection site (male and female rats; Compound 8 19 mg/kg, terminal males and females): slightly increased incidence and/or severity of perivascular subacute/chronic inflammation and/or hemorrhage | Changes attributable to altered renal function (male and female rats; Compound 8 9, 14, 19 mg/kg): noted in both sexes at all Compound 8 dose levels | Deaths, clinical observations, functional observation battery (FOB), ophthalmic examinations (male and female rats; Compound 8 9, 14, 19 mg/kg): no deaths and no effects were noted | Clinical Chemistry (moderate to marked) (male and female rats; Compound 8, 19 mg/kg): Creatinine↑, AST↑, ALT↑,; also recorded: Amylase↑, Lipase↑,; also recorded: Cholesterol↑ Globulin↑ | Clinical observations, FOB and ophthalmic observations (male and female rats; Compound 8, 19 mg/kg): No adverse effects | Mortality (male and female rats; Compound 8, 19 mg/kg): No unscheduled deaths | Pathology: Kidneys (moderate or severe) (male and female rats; Compound 8, 19 mg/kg): Tubule degeneration/necrosis | Pathology: Organ weights (male and female rats; Compound 8, 19 mg/kg): Thymus↓ | Pathology: Stomach nonglandular (male and female rats; Compound 8, 19 mg/kg): erosion ulcer (1M), no | Pathology: Testes (male and female rats; Compound 8, 19 mg/kg): Degeneration/atrophy (1M) | Pathology: Thymus (male and female rats; Compound 8, 19 mg/kg): (1M), (moderate at terminal, | Microscopic changes, kidney (male and female rats; rat, in vivo): kidney tubular degeneration/necrosis and/or regeneration | Organ weight changes (male and female rats; rat, in vivo, 14 mg/kg): decreased absolute and relative thymus weights in males and females | Increase in urea nitrogen (male and female rats; rat, in vivo, 19 mg/kg): +14% | Protein bound (human plasma): > 99% | IC50 (CYP2D6): 720 nM
